Results from patent US4508704A, “Radioactive metals complexed with phosphonate derivatives of bicycloheptane bis(alkylamines)” (The Dow Chemical Company, priority 1984, dated 1985).

Key:
[1] = cited from earlier work
[2] = Biodistribution in several tissues in rabbits, NaI scintillation counter; format: in vivo; conditions: 3 hours after injection, ear vein
Description: The complex of Example 1 was injected in the ear vein of a series of rabbits. The rabbits were killed 3 hours after injection. The radiation of several tissues was quantified by counting using a NaI scintillation counter.

[3] = Biodistribution in several tissues in rats, NaI scintillation counter; format: in vivo; conditions: 2 hours, ~1 mCi, tail vein
Description: The Tc-complex of Example 1 (50 μl, ~1 mCi) was injected into the tail vein of a series of rats. The animals were killed after 2 hours and the radiation from several tissues was quantitated using a NaI scintillation counter.

Compound | accumulation by bone ([1]; after intravenous administration) | biological half life ([1]; in vivo) | Ratio Femur/blood [2] | Ratio Femur/muscle [2] | radiation in Blood [2] | radiation in Femur [2] | radiation in Liver [2] | radiation in Muscle [2] | Percent Dose/Organ, Blood [3] | Percent Dose/Organ, Skeleton [3] | Percent Dose/Organ, Urine [3] | Ratio Bone/blood [3] | Ratio Bone/muscle [3]
[85Sr] [Sr-85, Strontium-85] | rapidly accumulated by bone | ~ 800 days | – | – | – | – | – | – | – | – | – | – | –
methylenediphosphonate [Tc-MDP] | – | – | 44 | 114 | 0.13 | 5.7 | 0.11 | 0.05 | 0.27 Percent Dose/Organ | 39.4 Percent Dose/Organ | 50.9 Percent Dose/Organ | 146 | 150
